Experiments:
MCF7 xenografts = assay: Growth inhibition of MCF7 xenograft tumors; format: in vivo, SCID-beige mice
Method: For treatment studies, MCF7 xenografts (ER+ PR+ HER2−) were generated by injection of one million cultured cells grown under standard in vitro conditions as previously described (Proc. Natl. Acad. Sci. U. S. A 105, 2008, 13033-13038). Donor tumors for PDX lines MC1 and BCM-5471 were divided into small fragments and retransplanted into the fat pat of recipient SCID Beige mice (5 mice per group). When the tumors reached approximately ˜200 mg, mice were treated with either vehicle or Sepin-1. Sepin-1 was injected at dose of 10 mg/kg daily for 5 days a week for 3 weeks. […] Vehicle injected mice served as controls. Size of the xenografts were measured every four days using calipers and tumor weight was estimated using the guidelines by NCI for xenograft evaluation (http://ncifrederick.cancer.gov/Lasp/Acuc/Frederick/Media/Documents/ACUC14.pdf). After 3 weeks treatment, the tumors were harvested and fixed in 10% Buffed Formalin Phosphate (Fisher Scientific, Pittsburgh, Pa.) overnight. The tumor tissues were washed with PBS for 3×30 min; dehydrated for 1 h at 70%, 80%, 90% and 100% two times; and immerged in Xylene several times until the tissues became clear. The samples were embedded in wax and sectioned with 5 μm in thickness. All mice were maintained in accordance with the NIH Guide for the Care and Use of Laboratory Animals with approval from the Baylor College of Medicine Institutional Animal Care and Use Committee.

MCF7 = assay: MTT in vitro cytotoxicity assay; format: cell-based, human
Method: The inhibitory effect of Sepin-1 on cell growth was assayed using the 3-(4,5-dimethylthiazol-2yl)-2,5-diphenyl-tetrazolium bromide (MTT) colorimetric dye reduction method (Cancer Chemother. Pharmacol., 2006, 58, 13-23). One hundred thirty-five μl of exponentially growing cancer cells were plated at a density of 0.4-1.0×10^5 cells/well in a 96-well microtiter plate. After 16 h, Sepin-1 at specified concentrations was added to each well. After 72 h of continuous drug exposure, 15 μl of 5 mg/ml MTT was added to each well and the plates were incubated for 4 h at 37° C. Medium was replaced with 150 μl of DMSO to solubilize the formazan, and the optical density (OD) was measured at 550 nm using a microplate spectrophotometer (Anthos Analytical, Durham, N.C., USA). Cell viability was calculated by subtracting the background OD of media alone from the OD of test wells, then dividing by the OD of the control (untreated) wells. Replicates of 3 wells were used for each drug concentration. The in vitro cytotoxicity assay was repeated once and the IC50 reported was the average of two independent experiments.

C57B6 mice = assay: Toxicity of Sepin-1 in mice, single intravenous dose; format: in vivo
Method: To investigate the toxicity in mice, Applicants injected Sepin-1 at a single dose in the range of 50-100 mg/kg body weight into C57B6 mice via tail vein.
Based on the above results, Applicants expanded this study to identify the Severely Toxic Dose (i.e., dose that causes death or irreversible severe toxicity, in 10% of rodents, STD10) using more mice injected at 75 to 90 mg/Kg range. A dose of 80 mg/Kg was estimated as STD10 for Sepin-1 in these mice.
To test Maximum Tolerated Dose (MTD) and No Observable Effect Level (NOEL) of Sepin-1, Applicants applied 200 μl Sepin-1 (diluted in PBS) one time at an acute dose range of 50 to 100 mg/kg body weight to 8-10 weeks old C57B6 mice (˜25 g) through intravenous tail vein injection (n=3/group). Except for the MTD dose, after Sepin-1 injection, the mice were returned to the cage and their reaction to the drug was monitored from one week to several months. Complete necropsy, blood chemistry and pathology of the Sepin-1 injected mice were carried out by the Comparative Pathology Laboratory at the Baylor College of Medicine.

[1] = MCF7 xenograft tumors treated with Sepin-1 versus vehicle
[2] = <80 mg/kg single dose via tail vein

SMILES: CC1(C)[N+]([O-])=c2ccc([N+](=O)[O-])cc2=[N+]1[O-] [Sepin-1, 2,2-dimethyl-5-nitro-2H-benzimidazole-1,3 dioxide]
- growth of MCF7 xenograft tumors (MCF7 xenografts; 10 mg/kg daily, 5 days a week, 3 weeks): inhibits the growth of xenograft tumor derived from MCF-7
- apoptotic bodies in H&E stained tumor sections (MCF7 xenografts; [1]): increase of apoptotic bodies
- cleaved caspase-3 staining of tumor sections (MCF7 xenografts; [1]): significantly increased
- IC50 (MCF7; Homo sapiens, MCF7, Breast, 72 h, read-out: IC50 growth inhibition): 14.4 µM
- sensitivity of MCF7 cells relative to MCF10f cells (MCF7; MCF7 versus MCF10f): over 3.3 times
- time to death after injection (C57B6 mice; 90 mg/kg single dose via tail vein): 30 to 90 min
- effect of dose <80 mg/kg (C57B6 mice; [2]): no apparent effect
- survival after injection (C57B6 mice; [2]): over 6 months
- Severely Toxic Dose in 10% of rodents (STD10) (C57B6 mice; mice injected at 75 to 90 mg/Kg range): 80 mg/kg
- histopathology of major organs (C57B6 mice; mouse, in vivo): no significant lesions in major organs

— patent US10052310B2, “Separase inhibitors and uses thereof” (Baylor College of Medicine, priority 2013, dated 2018)
